“Also recorded” adds a separate entry of the source.

In this assay the test system is abdominal adhesions in a rat model of surgical adhesions. Briefly: rat model of surgical (abdominal) adhesions, small intestine rubbed with latex glove. The assay is classed as in vivo, Wistar rats. The protocol:
The objective of the current study was to compare the efficacy of enteral saline, enteral Formula A, lavage tranexamic acid (TXA), and enteral Formula A with lavage TXA to prevent abdominal adhesions in a rat model of surgical adhesions.
The tests were conducted on Wistar rats from Harlan/Charles River. The sample size included 40 animals in total, with a target weight of 350-400 g (males). The rat was selected as the test model since it is accepted by regulatory authorities as a rodent animal model for toxicity studies, and high quality animals are readily available and a large amount of background pathology data is available in this species. […] The model reproducibility provides the ability to observe directional proof of concept data within normal experimental conditions.
Four groups were measured; Group 1 served as the control wherein saline (Baxter, 0.9% sodium chloride IV solution bags) was administered via enteral administration; subjects in Group 2 were exposed to an enteral administration of Formula A; subjects in Group 3 were exposed to a lavage of tranexamic acid (TXA) and saline; and subjects in Group 4 were given enteral administration of Formula A and a lavage of tranexamic acid (TXA) and saline.
Prior to the experiment, the animals were fasted and prepared for the adhesion model according to the schedule: (A) Evening Prior to Experiment—Begin Fasting; (B) Day 1: Hour−2.0—Administration of enteral test article (oral gavage); (C) Day 1: Hour 0.0−Induction of anesthesia with ketamine with a dose of 75 mg/kg, I.M; and (D) Day 1: Hour 0+10 min—induction of surgical adhesion model.
A small skin incision in the midline of the abdomen was made for isolation of small intestine. A length of the small intestine was rubbed gently with a latex glove 10 times. Animals were given abdominal lavage test article immediately after the small intestine was rubbed. Laparotomy was sutured and the animal allowed to recover. During surgery, the animals were kept warm (37° C.) at all times by a temperature therapy pad and vital signs (systemic blood pressure or respiratory rate, body temperature) were monitored at all times during experiment. Leg motion and toe reflexes were monitored for anesthetic level. On day 28—The animals were euthanized and the number and size/thickness of adhesions were quantified.

The mark [1] stands for this setting: vs enteral saline Group 1, 2 side T-test.

`NC[C@H]1CC[C@H](C(=O)O)CC1` [tranexamic acid (TXA), tranexamic acid]: the “mean number of adhesions per animal” value (Wistar rats, day 28, enteral = 4 ml oral gavage 2 hr pre surgery, lavage = 4 ml TXA in saline right after rubbing, saline control 4.10) was 0.67. For the setting “day 28, score 0-4: 4 = no adhesions, 3 ≤1 mm, 2 >1 mm ≤2 mm, 1 >2 mm, 0 = kinked intestine, saline control 1.60”, the “mean severity of adhesions (score)” value was 3.00. For the same compound, under setting [1], the “number of adhesions relative to the control (in words)” value was “significantly less adhesions relative to the control; also recorded: significant relative to the control Group 1” and the “severity of adhesions relative to the control (in words)” value was “significantly smaller adhesions in terms of severity relative to the control; also recorded: significant relative to the control Group 1”.

(Values after patent US20220079903A1, “COMPOSITIONS AND METHODS FOR TREATING AND PREVENTING ADHESIONS AND ILUES” (Leading Biosciences, Inc., priority 2016, published 2022).)
